Values joined by “and” are separate entries in the source; they are usually repeats but may differ in a detail not shown here. Identical values can stand only once. Like-named read-outs stand apart in the source and are kept apart here.
What was measured:
[1] = target: CB2 receptor (Homo sapiens, UniProt P34972); assay: CB2 assay: displacement of [3H]CP-55,940 from cloned human CB2 receptor preparation (transfected HEK 293 cells); assay type: binding; parameters: expressed in transfected cells; details: for Ratio CB1/CB2 / Ratio CB17CB2: ratio of Ki values
[2] = target: T1, CB1 receptor (Rattus norvegicus, UniProt P20272); assay: CB1 assay: displacement of [3H]CP-55,940 from rat brain membrane preparation; assay type: binding
T1 construct: from tissue; host or cells: rat whole brain, P2 membranes

[3] = Ki CB2, Table 1, mean ± SEM, cloned human CB2, [3H]CP 55,940
[4] = Table 2, mean ± SEM, 3-(alkyl-1-naphthoyl)indoles, read-out: Ki CB2
[5] = cloned human CB2, read-out: Ki at CB2 receptor
[6] = Ki at CB2 receptor, cloned human CB2
[7] = Table 2, mean ± SEM, 3-(alkyl-1-naphthoyl)indoles, read-out: Ki CB1
[8] = rat brain membranes, read-out: Ki at CB1 receptor
[9] = Table 1, mean ± SEM, rat brain membranes, [3H]CP 55,940, read-out: Ki CB1

Sequence of CB2 receptor (P34972 whole entry): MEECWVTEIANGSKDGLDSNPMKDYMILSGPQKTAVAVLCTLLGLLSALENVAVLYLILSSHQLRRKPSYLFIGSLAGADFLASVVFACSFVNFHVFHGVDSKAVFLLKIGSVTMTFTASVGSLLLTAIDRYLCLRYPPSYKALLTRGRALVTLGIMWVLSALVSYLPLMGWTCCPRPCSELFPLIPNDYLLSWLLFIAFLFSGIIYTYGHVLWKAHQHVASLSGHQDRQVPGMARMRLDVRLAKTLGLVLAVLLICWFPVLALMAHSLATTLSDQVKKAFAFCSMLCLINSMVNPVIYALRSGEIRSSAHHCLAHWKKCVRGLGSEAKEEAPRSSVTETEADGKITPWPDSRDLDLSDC
T1 sequence (P20272 whole entry): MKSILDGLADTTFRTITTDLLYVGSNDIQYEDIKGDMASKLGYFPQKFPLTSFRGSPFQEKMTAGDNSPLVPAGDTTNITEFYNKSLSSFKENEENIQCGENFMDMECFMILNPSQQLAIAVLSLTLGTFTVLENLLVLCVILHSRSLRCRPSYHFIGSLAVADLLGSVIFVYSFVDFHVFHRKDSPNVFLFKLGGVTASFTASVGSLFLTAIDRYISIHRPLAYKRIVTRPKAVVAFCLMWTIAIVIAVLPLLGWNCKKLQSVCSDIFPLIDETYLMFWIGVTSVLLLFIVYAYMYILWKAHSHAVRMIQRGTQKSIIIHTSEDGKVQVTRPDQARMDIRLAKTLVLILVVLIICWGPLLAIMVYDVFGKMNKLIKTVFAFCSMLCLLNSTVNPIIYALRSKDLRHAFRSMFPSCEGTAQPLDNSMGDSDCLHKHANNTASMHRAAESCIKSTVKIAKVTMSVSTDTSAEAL

CCCC(C)(C)c1cc(OC)c2c(c1)OC(C)(C)[C@@H]1CC=C(CO)C[C@@H]21 [Compound 11c, 1-Methoxy-3-(1′,1′-dimethylbutyl)-11-hydroxy-Δ^8-THC]
Ki [1, 3]: 28 ± 1 nM
Ratio CB1/CB2 ([1]; Table 1): 12
Ki [2]: 347 ± 34 nM

CCCCCn1c(C)c(C(=O)c2ccc(C)c3ccccc23)c2ccccc21 [JWH-149]
Ki [1, 4]: 0.73 ± 0.03 nM
Ratio CB17CB2 ([1]; Table 2): 6.8

CCCCCn1c(C)c(C(=O)c2c(OC)ccc3ccccc23)c2ccccc21 [JWH-268, 2-Methyl-1-pentyl-3-(2-methoxy-1-naphthoyl)indole]
Ki [1, 5]: 40 ± 1 nM
Ki ([2]; Table 3, mean ± SEM, 3-(alkoxy-1-naphthoyl)indoles, the same values as Ki in nM, read-out: CB1 (receptor affinity)): 1380 ± 193 nM

CCC(C)(C)c1ccc2c(c1)OC(C)(C)[C@@H]1CC=C(CO)C[C@@H]21 [Compound 9b, 1-Deoxy-3-(1′,1′-dimethylpropyl)-11-hydroxy-Δ^8-THC]
selectivity for the CB2 receptor ([1]; CB2 over CB1 affinity): 25 fold
Ki [1, 6]: 5.6 ± 1.7 nM
Ratio CB1/CB2 ([1]; Table 1): 33
Ki [2]: 187 ± 23 nM

CCCCCn1c(C)c(C(=O)c2ccc(CCC)c3ccccc23)c2ccccc21 [JWH-181, 2-Methyl-1-pentyl-3-(4-propyl-1-naphthoyl)indole]
Ratio CB17CB2 ([1]; Table 2): 2.1
Ki [1, 5]: 0.62 ± 0.04 nM
Ki [2, 7]: 1.3 ± 0.1 nM

CCCc1ccc(C(=O)c2cn(CCC)c3ccccc23)c2ccccc12 [JWH-180, 1-Propyl-3-(4-propyl-1-naphthoyl)indole]
Ki [1, 4]: 9.6 ± 2 nM
Ratio CB17CB2 ([1]; Table 2): 2.7
Ki [2, 7]: 26 ± 2 nM

CCCn1cc(C(=O)c2ccc(CC)c3ccccc23)c2ccccc21 [JWH-212, 1-Propyl-3-(4-ethyl-1-naphthoyl)indole]
Ki [1, 4]: 10 ± 1.2 nM
Ratio CB17CB2 ([1]; Table 2): 3.3
Ki [2, 7]: 33 ± 0.9 nM

CCCCCCC(C)(C)c1cc(OC)c2c(c1)OC(C)(C)[C@@H]1CC=C(CO)C[C@@H]21 [Compound 11f, 11-hydroxy-3-(1′,1′-dimethylheptyl)-1-methoxy-Δ^8-THC]
Ki [1, 6]: 1 nM and 1.2 nM
Ratio CB1/CB2 ([1]; Table 1): 14
Ki [2]: 14 ± 3 nM

CCCCC(C)(C)c1cc(OC)c2c(c1)OC(C)(C)[C@@H]1CC=C(C)C[C@@H]21 [Compound 6d, 1-Methoxy-3-(1′,1′-dimethylpentyl)-Δ^8-THC]
Ki [1, 3]: 43 ± 3 nM
Ratio CB1/CB2 ([1]; Table 1): 93
Ki [2]: 4000 ± 282 nM

CCCCCn1cc(C(=O)c2ccc(C)c3ccccc23)c2ccccc21 [JWH-122]
Ki [1, 4]: 1.2 ± 1.2 nM
Ratio CB17CB2 ([1]; Table 2): 0.6

CCCCCn1cc(C(=O)c2cccc3cc(OC)ccc23)c2ccccc21 [JWH-166, 1-Pentyl-3-(6-methoxy-1-naphthoyl)indole]
Ki [1, 5]: 1.9 ± 0.1 nM
Ki [2, 8]: 44 ± 10 nM

CCCCCn1cc(C(=O)c2ccc(CCC)c3ccccc23)c2ccccc21 [JWH-182, 1-Pentyl-3-(4-propyl-1-naphthoyl)indole]
Ki [1, 4]: 1.1 ± 0.1 nM
Ratio CB17CB2 ([1]; Table 2): 0.6
Ki [2, 7]: 0.65 ± 0.03 nM

CCCn1cc(C(=O)c2cccc3ccc(CC)cc23)c2ccccc21 [JWH-235, 1-Propyl-3-(7-ethyl-1-naphthoyl)indole]
Ratio CB17CB2 ([1]; Table 2): 2.7
Ki [1, 5]: 123 ± 34 nM
Ki [2, 8]: 338 ± 34 nM

CCCCCn1c(C)c(C(=O)c2ccc(OCC)c3ccccc23)c2ccccc21 [JWH-260, 2-Methyl-1-pentyl-3-(4-ethoxy-1-naphthoyl)indole]
Ki [1, 5]: 25 ± 1.9 nM
Ki [2, 8]: 29 ± 0.4 nM

COc1cc(C(C)(C)C)cc2c1C1CC(C)=CCC1C(C)(C)O2 (stereo not drawn) [Compound 6a, 1-Methoxy-3-(1′,1′-dimethylethyl)-Δ^8-THC]
Ratio CB1/CB2 ([1]; Table 1): 5.4
Ki [1, 5]: 1870 ± 867 nM
Ki [2, 9]: > 10000 nM

CCCCC(C)(C)c1cc(OC)c2c(c1)OC(C)(C)[C@@H]1CC=C(CO)C[C@@H]21 [Compound 11d, 1-Methoxy-3-(1′,1′-dimethylpentyl)-11-hydroxy-Δ^8-THC]
Ki [1, 3]: 4.4 ± 0.3 nM
Ki [1, 6]: 40 ± 6 nM
Ratio CB1/CB2 ([1]; Table 1): 9.1
Ki [2]: 40 ± 6 nM

CCCc1ccc(C(=O)c2c(C)n(CCC)c3ccccc23)c2ccccc12 [JWH-189, 2-Methyl-1-propyl-3-(4-propyl-1-naphthoyl)indole]
Ki [1, 4]: 12 ± 0.8 nM
Ratio CB17CB2 ([1]; Table 2): 4.3
Ki [2, 7]: 52 ± 2 nM

CCCCCn1c(C)c(C(=O)c2ccc(CCCC)c3ccccc23)c2ccccc21 [JWH-242, 2-Methyl-1-pentyl-3-(4-butyl-1-naphthoyl)indole]
Ratio CB17CB2 ([1]; Table 2): 6.5
Ki [1, 5]: 6.5 ± 0.3 nM
Ki [2, 8]: 42 ± 9 nM

CCCCCC(C)(C)c1cc(OC)c2c(c1)OC(C)(C)C1CC=C(CO)CC21 (stereo not drawn) [Compound 11e, 1-Methoxy-3-(1′,1′-dimethylhexyl)-11-hydroxy-Δ^8-THC]
Ratio CB1/CB2 ([1]; Table 1): 11
Ki [1, 5]: 1.4 nM and 1.2 nM
Ki [2, 8]: 15 nM and 14 nM

CCCCc1ccc(C(=O)c2c(C)n(CCC)c3ccccc23)c2ccccc12 [JWH-241, 2-Methyl-1-propyl-3-(4-butyl-1-naphthoyl)indole]
Ratio CB17CB2 ([1]; Table 2): 3.0
Ki [1, 5]: 49 ± 7 nM
Ki [2, 8]: 147 ± 20 nM

CCC(C)(C)c1cc(OC)c2c(c1)OC(C)(C)C1CC=C(C)CC21 (stereo not drawn) [Compound 6b, 1-Methoxy-3-(1′,1′-dimethylpropyl)-Δ^8-THC]
Ki ([1]; Table 1, mean ± SEM, cloned human CB2, [3H]CP 55,940, read-out: Ki CB2): 1400 ± 66 nM
Ratio CB1/CB2 ([1]; Table 1): 7.1
Ki [2, 9]: > 10000 nM

Source: patent US20050009903A1, “CB2-selective cannabinoid analogues” (priority 2003, published 2005)
